In PMC12111648, “New Dimethoxyaryl-Sesquiterpene Derivatives with Cytotoxic Activity Against MCF-7 Breast Cancer Cells: From Synthesis to Topoisomerase I/II Inhibition and Cell Death Mechanism Studies” (International Journal of Molecular Sciences, 2025):
Where two headings read alike, the source gives them in different places.

What was measured:
MCF-7 cells [1] = details: cited from earlier work
MCF-10 cells [2] = test system: MCF-10 cells; parameters: method as in PMID 25412045; details: reference drug; cited from earlier work
MCF-7 cells [3] = assay: MTT cytotoxicity assay on MCF-7 cells; assay type: cell-based, human; details: for Selectivity Index (SI): SI = IC50 on MCF-10 cells/IC50 on MCF-7 cells; for IC50: Homo sapiens, MCF7, MTT, 48 h incubation, IC50 ± SD, three experiments in triplicate
Procedure: (§1) In this study, we wondered whether semi-synthetic compounds have potential antitumoral properties against BC. Therefore, we were interested in investigating the effect of the compounds on the MCF-7 cell line. Firstly, we studied the effect on cell viability using a colorimetric MTT assay, which was performed to quantify the cytotoxic activity; each compound was evaluated at different concentrations (500−100−20−4−0.8−0.16−0.032−0 µM). Daunorubicin was also used as a positive control for comparison with a reference drug. […] Although the MCF-10 cell line provides a useful selectivity model, it may not fully represent the varying sensitivities of different normal cell types within a multicellular organism. The SI value indicates the ratio of toxicity in mammalian host cells to that in a tumoral cell. The data obtained in response to different concentrations of compounds were used to calculate the IC50 and corresponding SI values, as shown in Table 1.
(§2) The American Type Culture Collection (Rockville, MD, USA) supplied the following experimental cell lines: MCF-7, a human breast cancer cell line, and MCF-10A, a human epithelial breast cell line (ATCC N° CRL-10317). Both cell lines were grown in DMEM-F12 medium containing 10% FCS, 100 U/mL penicillin, 100 μg/mL streptomycin, and 1 mM glutamine. The cells were seeded at a concentration of 100 μL per well at a plating density of 3 × 10^3 cells/well and incubated for 24 h at 37 °C under 5% humidified CO2 to enable attachment. The cells were then treated with varying concentrations of synthesized compounds for […] under the same conditions. The compound stock solution was prepared in DMSO, and the final concentration of DMSO was kept at 0.1%. Control cultures were treated with only 1% ethanol.
(§3) Cells from the MCF-7 and MCF-10 lines were seeded into 96-well plates at a density of 1 × 10^4 per well. After 24 h, the compounds were added at increasing concentrations (500–100–20-4–0.8–0.16–0.032–0 µM), and the cells were incubated at 37 °C in a humidified 5% CO2/95% air mixture for 48 h. Following incubation, the cells were washed twice with PBS, and 100 μL of 0.5 mg/mL MTT solution was added to each well. After 2 h of incubation, the MTT solution was removed, and the formazan crystals were dissolved in 50 μL of DMSO per well. Absorbance was then measured at 570 nm using a microplate ELISA reader. IC50 values, determined from three independent experiments conducted in triplicate, were calculated using SigmaPlot® software (version 11.0). The selectivity index (SI) of each compound in each cell line was determined by calculating the ratio of the IC50 values for MCF-10 and cancer cell lines. Compounds were considered selective if SI values were equal to or greater than 3 [46].

human topoisomerase II = assay: TOP2 DNA relaxation / plasmid linearization assay; assay type: biochemical; details: 20 μM
Procedure: The ability to relax DNA conformations is a central function of topoisomerase enzymes. Several studies have associated some proapoptotic compounds with the ability to inhibit topoisomerase enzymes. The ability of the selected compounds to inhibit TOP1 or TOP2 activity was determined. In this experiment, daunorubicin was used as a positive control for TOP1/2 inhibition, as previously reported. […] It is important to note the potential for cardiotoxicity associated with some TOP2 inhibitors, which highlights the relevance of assessing compound 14c’s interaction with TOP2B. […] Future studies should include assays to evaluate the specific activity of 14c against both TOP2A and TOP2B to provide a more comprehensive safety profile, as isoform-selective TOP2 inhibitors may offer a therapeutic advantage by reducing adverse effects.
Topoisomerase II-mediated DNA cleavage was assessed using a plasmid linearization assay adapted from previously described methods. Supercoiled plasmid DNA (200 ng final concentration) was incubated with purified human topoisomerase II (10 U) in the presence or absence of test agents or a positive control. Reactions were carried out in a total volume of 20 μL, composed of 2 μL of 10× topoisomerase II reaction buffer, an appropriate volume of compound or control, and nuclease-free water. ATP (final concentration adjusted from a 20 mM stock) was freshly added to the reaction buffer immediately prior to use. Reactions were initiated by the addition of topoisomerase II and incubated at 37 °C for 30 min. To terminate the reactions, 2 μL of 10% SDS was added directly to the tubes while still in the 37 °C water bath, followed by the addition of 1.5 μL of 250 mM tetrasodium EDTA (pH 8.0) and 2 μL of proteinase K solution (0.8 mg/mL). […]
Figure 7 The effect of sesquiterpene aryl esters on TOP1- and TOP2-induced DNA relaxation was assessed. (A) The TOP1 inhibition assay evaluated the compounds (10c, 11c, 12c, 13c, and 14c) at a concentration of 20 μM in a DNA relaxation assay. […]

MCF-7 cells [4] = assay: Mitochondrial membrane potential (rhodamine 123, flow cytometry); assay type: cell-based, human; details: MCF-7, compounds at respective IC50, 24 h
Procedure: To determine whether the toxic effects of selected sesquiterpenes (10c, 11c, 12c, 13c, and 14c) are due to the production of ROS and subsequent apoptosis, the mitochondrial membrane potential was measured. With this aim, a protocol using rhodamine 123 staining and flow cytometry was established to study the effect of the selected compounds [40]. The accumulation of rhodamine 123 in mitochondria is associated with the maintenance of the electrochemical gradient in mitochondria. Daunorubicin was used as a positive control (C+). The results are presented as the percentage of cells with increased mitochondrial membrane permeability.
Rhodamine 123 (Rho123), a positively charged dye that reacts to voltage changes and enters the mitochondria, was utilized to detect modifications in the mitochondrial membrane potential. The cells were exposed to specific compounds (IC50 values for each compound) for 24 h. Control cells that had not been treated were used as negative control, while cells treated with daunorubicin at a concentration of 1 µM served as the positive control. Following this, the cells were incubated with Rho123 (at a concentration of 1 µM) in darkness for an hour at 37 °C. Afterward, the medium was taken out, and the cells were washed with PBS. The cells were then dissociated using trypsin and collected through centrifugation for 10 min at 1500×g. The supernatant was thrown away, and the cell pellets were resuspended in PBS and analyzed using flow cytometry with the FL1 filter. The results are shown as the percentage of Rho123-stained cells.
Figure 5 The effect of the compound’s treatment on mitochondrial membrane potential. […] The data represent the means ± S.D. of at least three experiments with triplicate samples.

MCF-10 cells [5] = assay: MTT cytotoxicity assay on non-tumoral MCF-10 cells; assay type: cell-based, human; details: Homo sapiens, MCF10, 48 h incubation, IC50 ± SD, three experiments in triplicate
Procedure: as §1, §2, §3

[6] = test system: caspases-3/7 in MCF-7 cells; assay: Caspase-Glo 3/7 assay; assay type: cell-based, human; details: MCF-7, 50 μM, 24 h, versus control
Procedure: Since ROS levels were increased in the MCF-7 cancer cell line in response to the compounds, it is important to determine whether this effect is associated with the onset of apoptotic cell death. […] Cells were treated with the selected compounds at 50 μM for 24 h, incubated in situ with the Caspase-Glo 3/7 marker assay, and then analyzed in a luminometer.
The activity of caspase 3/7 in MCF-7 cells treated with the compounds was determined using a Caspase-Glo-3/7 Assay kit from Promega (UK). This assay is a homogenous and luminescent method that measures the activity of caspase-3 and -7, which are essential for apoptosis. MCF-7 cells (1 × 10^4 cells per well) were seeded in a 96-well plate and incubated overnight. The cells were then treated for 24 h with the compounds (50 µM) and a blank as a control. After treatment, the Caspase-Glo® 3/7 reagent was prepared according to the manufacturer’s instructions. Specifically, 100 μL of the reagent was added to 100 μL of culture medium containing the treated cells in each well, and the mixture was incubated for 1 h at room temperature in the dark. Luminescence was then measured using a luminometer (Berthold Sirius Single Tube Luminometer). The fold change in caspase activity was calculated by expressing the average luminescence of each treatment as a fold change with respect to the average luminescence of the negative control.
Figure 6 The effect of the compounds on caspases-3/7 activity in cells from the human breast cancer cell line MCF-7. Caspases-3/7 activity was determined in MCF-7 cells following treatment with the compounds (50 μM) for 24 h. The data are reported as the ratio of activity in treated cells vs. the control (1% ethanol), which were arbitrarily assigned a unitary value. * p < 0.05 versus control cells (Ctrl). The data are reported as the mean values ± S.D. of three different experiments with samples in triplicate.

MCF-7 cells [7] = assay: Intracellular ROS generation (DCFH2-DA, flow cytometry); assay type: cell-based, human; details: MCF-7, compounds at respective IC50, 24 h, versus control
Procedure: An increase in intracellular ROS may be one of the factors that contribute to the cytotoxicity of certain compounds in cancer cell lines. In fact, ROS and mitochondrial damage are often associated with the induction of cell death. […] DCF fluorescence was then measured by flow cytometry. The difference in the percentage of DCF-positive cells between treated and control cells was used to indicate an increase in intracellular ROS, as shown in Figure 4.
Reactive oxygen species (ROS) production was measured using flow cytometry. Cells were treated with compounds (each with respective IC50 values) for 24 h, with untreated cells serving as the negative control and cells treated with 1 µM daunorubicin as the positive control. Following the treatment, intracellular ROS levels were visualized after incubation with 2′,7′-dichlorodihydro-fluorescein diacetate (DCFH2-DA) at a final concentration of 10 μM for the last 30 min of the treatment period. After incubation, the cells were washed with PBS, trypsinized, and centrifuged, and the resulting pellet was resuspended in PBS and immediately examined by flow cytometry.
Figure 4 The effect of the compound’s treatment on intracellular ROS generation. Cells were treated with compounds (respective IC50 values for each compound for 24 h), and intracellular ROS levels were determined in the human cancer cell line MCF-7 by flow cytometry using dichloro-fluorescein diacetate (DCFH2-DA). * p < 0.05 versus control cells (Ctrl). The data represent the means ± S.D. of at least three experiments with triplicate samples.

Row | SMILES | IC50 (MCF-7 cells [1]; reference drug) [µM] | IC50 (MCF-10 cells [2]) [µM] | Selectivity Index (SI) (MCF-7 cells [3]) | inhibition of TOP2-induced DNA relaxation (human topoisomerase II) | mitochondrial membrane permeability (MCF-7 cells [4]) | IC50 (MCF-10 cells [5]) [µM] | IC50 (MCF-7 cells [3]) [µM] | caspases-3/7 activity [6] | intracellular ROS levels (DCF fluorescence) (MCF-7 cells [7]) | cytotoxicity of the base sesquiterpene system (MCF-7 cells [1]; as previously reported by our group)
1 | COc1cccc2c1C(=O)c1c(O)c3c(c(O)c1C2=O)C[C@@](O)(C(C)=O)C[C@@H]3O[C@H]1C[C@H](N)[C@H](O)[C@H](C)O1 [Daunorubicin, reference compound] | 0.33 ± 0.02 | 9.32 ± 1.01 | 28 | modified the TOP2-induced DNA relaxation pattern | – | – | – | – | – | –
2 | COc1ccc(C(=O)[C@H]2C(C)=CCC3C(C)(C)CCC[C@@]32C)cc1OC (stereo partly drawn) [Compound 12c, (3,4-Dimethoxyphenyl)((1S,8aS)-2,5,5,8a-tetramethyl-1,4,4a,5,6,7,8,8a-octahydronaphthalen-1-yl)methanone] | – | – | 4.3 | – | did not increase | 131 ± 29.3 | 30.1 ± 6.6 | considerably enhanced | significantly increased | –
3 | CC1=CC[C@H]2C(C)(C)CCC[C@]2(C)[C@H]1CO [(-)-drimenol] | – | – | – | – | – | – | – | – | – | inactive
4 | COc1ccc([C@@H](O)[C@H]2C(C)=CCC3C(C)(C)CCC[C@@]32C)cc1OC (stereo partly drawn) [Compound 10c, (1S)-(3,4-Dimethoxyphenyl)((1S,8aS)-2,5,5,8a-tetramethyl-1,4,4a,5,6,7,8,8a-octahydronaphthalen-1-yl) methanol] | – | – | 9.9 | – | did not increase | 248 ± 42.3 | 25.1 ± 2.2 | considerably enhanced | significantly increased | –
